Test results reported in patent publication US10556865B2, “Synergistic herbicidal composition containing certain pyridine or pyrimidine carboxylic acids and certain cereal and rice herbicides” (Dow AgroSciences, LLC, priority 2007, dated 2020).
Where two headings read alike, the source gives them in different places.

Columns and labels:
Type in all cases: in vivo
[1] = system: Fimbristylis miliacea (L.) VAHL (FIMMI); test: Herbicidal mixtures for weed control in transplanted paddy rice (in-water application, visual % injury)
Procedure, shortened: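 Weeds sown in flooded puddled mineral soil (pH ~7.3–7.8, ~1.0% organic matter) and treated at second–third true leaf stage by injecting acetone/2.5% Agri-dex stock into the paddy water. A, C and D dosed as acid equivalent, partner herbicides as active ingredient. Injury scored visually after 3 weeks in greenhouse, 0–100% versus untreated plants.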

[2] = system: Fimbristylis miliacea (L.) VAHL (FIMMI); test: Postemergence herbicidal mixtures for weed control in direct seeded rice (greenhouse, visual % injury); conditions: FIMMI
Cyperus iria L. (CYPIR) = test: as above; conditions: for % Injury Ob: CYPIR
[3] = system: wild pansy (Viola tricolor L; VIOTR); test: Postemergence herbicidal activity of mixtures in cereal crops (greenhouse, visual injury); conditions: Viola tricolor, post-emergence, read-out: VIOTR Ob
Procedure, shortened: (§1)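 Weeds grown in greenhouse (~14 h photoperiod, ~18/17 °C day/night) to second–third true leaf stage, sprayed postemergence with compound and second cereal herbicide alone or combined; solvent-blank controls. Injury scored visually after 20-22 days, 0–100% (complete kill); expected mixture activity = A+B−(A×B/100).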

[4] = system: bird's-eye speedwell (Veronica persica L; VERPE); test: as above; conditions: for VERPE Ob: Table 28
Procedure, shortened: as §1

Question: How did the “% Injury Ob” value ([1]; 17.5 g/ha alone) turn out when `COC(=O)c1nc(-c2ccc(Cl)c(OC)c2F)cc(N)c1Cl` [Compound A Methyl, 4-amino-3-chloro-6-(4-chloro-2-fluoro-3-methoxyphenyl)pyridine-2-carboxylic acid methyl ester] was run?
Answer: Its value is 20%.

Question: And the “% Injury FIMMI Ob” value ([1]; Compound A Methyl 17.5 g/ha alone)?
Answer: The value was 20%.

Question: What about the “% Injury Ob” value ([2]; 4.38 g/ha alone) of the same compound?
Answer: Its value is 20%.

Question: And the “% Injury Ob” value ([2]; 8.75 g/ha alone)?
Answer: The value was 40%.

Question: And the “% Injury Ob” value (Cyperus iria L. (CYPIR); 35 g/ha alone)?
Answer: Its value is 50%.

Question: And the “% Injury CYPIR Ob” value (Cyperus iria L. (CYPIR); alone 4.38 g/ha)?
Answer: The value was 70%.

Question: What about the “% Injury CYPIR Ob” value (Cyperus iria L. (CYPIR); alone 35 g/ha) of the same compound?
Answer: Its value is 50%.

Question: And the pest or weed control at 17.5 g/ha ([3]; 17.5 g/ha)?
Answer: Its pest or weed control at 17.5 g/ha is 55%.

Question: And the pest or weed control at 35 g/ha ([3]; 35 g/ha)?
Answer: The pest or weed control at 35 g/ha was 63%.

Question: What about the pest or weed control at 70 g/ha ([3]; 70 g/ha) of the same compound?
Answer: The pest or weed control at 70 g/ha was 75%.

Question: What about the pest or weed control at 17.5 g/ha ([4]; Veronica persica, post-emergence, 17.5 g/ha, read-out: VERPE Ob) of the same compound?
Answer: The pest or weed control at 17.5 g/ha was 45%.

Question: What about the pest or weed control at 35 g/ha ([4]; Veronica persica, post-emergence, 35 g/ha, read-out: VERPE Ob) of the same compound?
Answer: The pest or weed control at 35 g/ha was 58%.

Question: And the pest or weed control at 70 g/ha ([4]; Veronica persica, post-emergence, 70 g/ha, read-out: VERPE Ob)?
Answer: The pest or weed control at 70 g/ha was 70%.

Question: For `O=C(O)c1c(Cl)ccc2cc(Cl)cnc12` [Quinclorac], which “% Injury FIMMI Ob” value ([1]; Quinclorac 140 g/ha alone (Compound A Methyl half)) is on record?
Answer: The value was 0%.

Question: What about the “% Injury FIMMI Ob” value ([1]; Quinclorac 140 g/ha alone (Compound A TEA half)) of the same compound?
Answer: The value was 0%.

Question: And the “% Injury Ob” value ([2]; 140 g/ha alone)?
Answer: Its value is 0%.

Question: And the “% Injury Ob” value (Cyperus iria L. (CYPIR); 140 g/ha alone)?
Answer: The value was 0%.

Question: With `COc1c(Cl)ccc(-c2cc(N)c(Cl)c(C(=O)O)n2)c1F` [Compound A TEA, 4-amino-3-chloro-6-(4-chloro-2-fluoro-3-methoxyphenyl)pyridine-2-carboxylic acid] as the compound, how does the “% Injury Ob” value ([1]; 17.5 g/ha alone) read?
Answer: The value was 30%.

Question: What about the “% Injury Ob” value ([1]; 35 g/ha alone) of the same compound?
Answer: The value was 0%.

Question: And the “% Injury Ob” value ([1]; 70 g/ha alone)?
Answer: Its value is 0%.

Question: What about the “% Injury FIMMI Ob” value ([1]; Compound A TEA 17.5 g/ha alone) of the same compound?
Answer: Its value is 30%.

Question: And the pest or weed control at 8.75 g/ha ([3]; 8.75 g/ha alone)?
Answer: The pest or weed control at 8.75 g/ha was 30%.

Question: And the pest or weed control at 17.5 g/ha ([3]; 17.5 g/ha alone)?
Answer: The pest or weed control at 17.5 g/ha was 40%.

Question: And the pest or weed control at 35 g/ha ([3]; 35 g/ha alone)?
Answer: Its pest or weed control at 35 g/ha is 47%.

Question: What about the pest or weed control at 35 g/ha ([3]; 35 g/ha) of the same compound?
Answer: Its pest or weed control at 35 g/ha is 30%.

Question: And the pest or weed control at 70 g/ha ([3]; 70 g/ha alone)?
Answer: The pest or weed control at 70 g/ha was 60%.

Question: And the pest or weed control at 70 g/ha ([3]; 70 g/ha)?
Answer: Its pest or weed control at 70 g/ha is 60%.

Question: And the pest or weed control at 140 g/ha ([3]; 140 g/ha)?
Answer: Its pest or weed control at 140 g/ha is 60%.

Question: And the “VERPE Ob” value ([4]; 35 g/ha)?
Answer: Its value is 75%.

Question: And the “VERPE Ob” value ([4]; 70 g/ha)?
Answer: The value was 80%.

Question: And the “VERPE Ob” value ([4]; 140 g/ha)?
Answer: The value was 85%.

Question: What about the pest or weed control at 8.75 g/ha ([4]; Veronica persica, post-emergence, 8.75 g/ha alone, read-out: VERPE Ob) of the same compound?
Answer: The pest or weed control at 8.75 g/ha was 48%.

Question: What about the pest or weed control at 17.5 g/ha ([4]; Veronica persica, post-emergence, 17.5 g/ha alone, read-out: VERPE Ob) of the same compound?
Answer: Its pest or weed control at 17.5 g/ha is 68%.

Question: What about the pest or weed control at 35 g/ha ([4]; Veronica persica, post-emergence, 35 g/ha alone, read-out: VERPE Ob) of the same compound?
Answer: Its pest or weed control at 35 g/ha is 79%.

Question: And the pest or weed control at 35 g/ha ([4]; Veronica persica, post-emergence, 35 g/ha, 1st VERPE column, read-out: VERPE Ob)?
Answer: The pest or weed control at 35 g/ha was 60%.

Question: What about the pest or weed control at 35 g/ha ([4]; Veronica persica, post-emergence, 35 g/ha, 2nd VERPE column, read-out: VERPE Ob) of the same compound?
Answer: Its pest or weed control at 35 g/ha is 75%.

Question: What about the pest or weed control at 70 g/ha ([4]; Veronica persica, post-emergence, 70 g/ha alone, read-out: VERPE Ob) of the same compound?
Answer: The pest or weed control at 70 g/ha was 88%.

Question: What about the pest or weed control at 70 g/ha ([4]; Veronica persica, post-emergence, 70 g/ha, 1st VERPE column, read-out: VERPE Ob) of the same compound?
Answer: The pest or weed control at 70 g/ha was 60%.

Question: What about the pest or weed control at 70 g/ha ([4]; Veronica persica, post-emergence, 70 g/ha, 2nd VERPE column, read-out: VERPE Ob) of the same compound?
Answer: The pest or weed control at 70 g/ha was 80%.

Question: What about the pest or weed control at 140 g/ha ([4]; Veronica persica, post-emergence, 140 g/ha, 1st VERPE column, read-out: VERPE Ob) of the same compound?
Answer: Its pest or weed control at 140 g/ha is 60%.

Question: What about the pest or weed control at 140 g/ha ([4]; Veronica persica, post-emergence, 140 g/ha, 2nd VERPE column, read-out: VERPE Ob) of the same compound?
Answer: Its pest or weed control at 140 g/ha is 85%.
